The source made the active and inactive calls. The rule behind the calls is not given here.
Key:
[1] = target: Interleukin-1 receptor-associated kinase 3 (Homo sapiens) (UniProt Q9Y616); experiment: Inhibition of IRAK3 (unknown origin) at 10 uM by Ambit Kinomescan binding assay
[2] = target: DNA-dependent protein kinase catalytic subunit (Homo sapiens) (UniProt P78527); experiment: Inhibition of PRKDC ATP labeling site harbouring KGGSWIQEINVAEK in human Huh-7 cells at 1 uM by KiNativ Profiling analysis relative to control; type: cell-based
[3] = target: T1, Serine/threonine-protein kinase ULK3 (Homo sapiens) (UniProt Q6PHR2); experiment: Inhibition of ULK3 Lys2 labeling site in human A-375 cells at 0.05 uM by KiNativ Profiling analysis relative to control; type: cell-based
T1 sequence (whole entry): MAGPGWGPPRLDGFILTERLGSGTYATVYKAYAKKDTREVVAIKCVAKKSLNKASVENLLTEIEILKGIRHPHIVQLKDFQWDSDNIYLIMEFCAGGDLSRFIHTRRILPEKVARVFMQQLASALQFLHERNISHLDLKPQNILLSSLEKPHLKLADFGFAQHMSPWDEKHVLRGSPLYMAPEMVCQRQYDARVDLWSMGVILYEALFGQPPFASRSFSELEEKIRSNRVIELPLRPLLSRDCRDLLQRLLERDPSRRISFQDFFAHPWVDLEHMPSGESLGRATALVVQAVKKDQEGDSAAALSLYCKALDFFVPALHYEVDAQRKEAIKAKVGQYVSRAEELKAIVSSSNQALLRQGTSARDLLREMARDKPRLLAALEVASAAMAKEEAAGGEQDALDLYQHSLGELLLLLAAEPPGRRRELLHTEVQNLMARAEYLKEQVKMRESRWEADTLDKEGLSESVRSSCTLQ

[4] = target: Calcium/calmodulin-dependent protein kinase type 1 (Homo sapiens) (UniProt Q14012); experiment: Inhibition of CAMK1 (unknown origin) at 10 uM by Ambit Kinomescan binding assay relative to control
Sequence of Calcium/calmodulin-dependent protein kinase type 1 (Homo sapiens) (Q14012 whole entry, looked up): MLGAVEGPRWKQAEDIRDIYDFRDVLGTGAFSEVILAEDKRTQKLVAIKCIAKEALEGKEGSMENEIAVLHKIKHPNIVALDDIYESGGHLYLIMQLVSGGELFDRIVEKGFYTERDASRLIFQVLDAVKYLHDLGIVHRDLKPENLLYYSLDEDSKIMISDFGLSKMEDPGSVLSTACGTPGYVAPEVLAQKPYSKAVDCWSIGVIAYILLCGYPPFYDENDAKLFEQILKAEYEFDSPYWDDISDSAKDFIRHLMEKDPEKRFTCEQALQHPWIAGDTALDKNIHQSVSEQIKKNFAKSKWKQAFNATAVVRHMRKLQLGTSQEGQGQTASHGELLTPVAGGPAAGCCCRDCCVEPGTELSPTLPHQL

[5] = target: T2, Serine/threonine-protein kinase greatwall (Homo sapiens) (UniProt Q96GX5); experiment: Inhibition of MASTL ATP labeling site in human Huh-7 cells at 1 uM by KiNativ Profiling analysis relative to control; type: cell-based
T2 sequence (whole entry): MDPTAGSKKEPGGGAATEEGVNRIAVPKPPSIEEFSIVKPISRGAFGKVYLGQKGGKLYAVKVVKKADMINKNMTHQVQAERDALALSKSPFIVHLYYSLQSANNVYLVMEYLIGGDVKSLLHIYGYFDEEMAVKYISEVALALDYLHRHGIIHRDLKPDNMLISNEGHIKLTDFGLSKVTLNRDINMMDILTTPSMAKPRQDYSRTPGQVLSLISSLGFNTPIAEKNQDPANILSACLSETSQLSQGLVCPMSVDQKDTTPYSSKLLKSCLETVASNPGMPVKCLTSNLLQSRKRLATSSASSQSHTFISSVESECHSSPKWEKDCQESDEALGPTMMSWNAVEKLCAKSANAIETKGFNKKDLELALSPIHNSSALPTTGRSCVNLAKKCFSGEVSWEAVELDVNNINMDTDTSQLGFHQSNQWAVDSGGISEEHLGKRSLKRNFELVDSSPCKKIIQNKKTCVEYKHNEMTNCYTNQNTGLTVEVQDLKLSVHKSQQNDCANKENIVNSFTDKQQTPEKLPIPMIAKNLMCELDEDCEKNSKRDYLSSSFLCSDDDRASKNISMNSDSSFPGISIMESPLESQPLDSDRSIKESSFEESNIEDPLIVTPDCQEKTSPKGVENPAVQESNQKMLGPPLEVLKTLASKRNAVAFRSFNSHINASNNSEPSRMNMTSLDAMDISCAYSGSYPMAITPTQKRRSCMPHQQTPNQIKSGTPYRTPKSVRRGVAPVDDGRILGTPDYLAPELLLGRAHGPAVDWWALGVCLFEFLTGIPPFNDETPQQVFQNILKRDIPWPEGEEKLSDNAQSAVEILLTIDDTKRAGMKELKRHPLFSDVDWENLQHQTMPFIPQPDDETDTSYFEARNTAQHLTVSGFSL

[6] = target: Testis-specific serine/threonine-protein kinase 1 (Homo sapiens) (UniProt Q9BXA7); experiment: Inhibition of TSSK1B (unknown origin) at 10 uM by Ambit Kinomescan binding assay
Sequence of Testis-specific serine/threonine-protein kinase 1 (Homo sapiens) (Q9BXA7 whole entry): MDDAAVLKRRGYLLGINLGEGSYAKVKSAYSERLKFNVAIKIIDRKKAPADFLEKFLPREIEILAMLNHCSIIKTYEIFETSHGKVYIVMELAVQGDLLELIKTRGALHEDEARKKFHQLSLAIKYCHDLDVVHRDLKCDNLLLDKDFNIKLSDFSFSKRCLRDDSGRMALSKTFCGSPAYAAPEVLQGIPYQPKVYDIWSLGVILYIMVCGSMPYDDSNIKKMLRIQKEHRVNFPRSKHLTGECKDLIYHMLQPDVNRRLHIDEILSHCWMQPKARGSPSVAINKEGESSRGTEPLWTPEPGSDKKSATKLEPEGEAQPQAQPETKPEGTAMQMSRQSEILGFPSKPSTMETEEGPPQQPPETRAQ

[7] = target: Cyclin-dependent kinase 7 (Homo sapiens) (UniProt P50613); experiment: Inhibition of CDK7 Lys2 labeling site in human Huh-7 cells at 1 uM by KiNativ Profiling analysis relative to control; type: cell-based
Sequence of Cyclin-dependent kinase 7 (Homo sapiens) (P50613 whole entry): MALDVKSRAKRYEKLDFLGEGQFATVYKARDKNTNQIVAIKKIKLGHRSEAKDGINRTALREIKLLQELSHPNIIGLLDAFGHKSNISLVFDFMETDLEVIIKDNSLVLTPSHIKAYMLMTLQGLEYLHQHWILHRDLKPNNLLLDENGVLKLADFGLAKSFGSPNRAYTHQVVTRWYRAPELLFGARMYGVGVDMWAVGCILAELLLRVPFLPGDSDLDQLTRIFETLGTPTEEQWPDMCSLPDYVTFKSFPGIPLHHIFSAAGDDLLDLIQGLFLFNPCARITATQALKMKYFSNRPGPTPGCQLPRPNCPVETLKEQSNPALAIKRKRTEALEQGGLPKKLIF

[8] = target: T3, Acylglycerol kinase, mitochondrial (Homo sapiens) (UniProt Q53H12); experiment: Inhibition of AGK ATP labeling site in human Huh-7 cell lysate at 1 uM by KiNativ Profiling analysis relative to control; type: subcellular
T3 sequence (whole entry): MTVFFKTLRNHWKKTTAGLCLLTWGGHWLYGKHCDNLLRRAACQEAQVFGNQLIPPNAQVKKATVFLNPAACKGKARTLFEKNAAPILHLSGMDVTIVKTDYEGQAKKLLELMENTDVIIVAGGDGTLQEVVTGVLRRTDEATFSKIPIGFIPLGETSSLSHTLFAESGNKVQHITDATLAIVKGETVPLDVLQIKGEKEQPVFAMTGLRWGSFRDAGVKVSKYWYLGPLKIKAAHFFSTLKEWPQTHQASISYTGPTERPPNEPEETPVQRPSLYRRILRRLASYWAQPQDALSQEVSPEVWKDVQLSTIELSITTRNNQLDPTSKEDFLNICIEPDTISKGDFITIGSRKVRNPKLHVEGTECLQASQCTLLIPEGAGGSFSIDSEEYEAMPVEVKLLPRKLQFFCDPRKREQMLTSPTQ

[9] = target: STE20/SPS1-related proline-alanine-rich protein kinase (Homo sapiens) (UniProt Q9UEW8); experiment: Inhibition of STLK3 Lys2 labeling site in human Huh-7 cell lysate at 1 uM by KiNativ Profiling analysis relative to control; type: subcellular
[10] = target: T4, Dual specificity mitogen-activated protein kinase kinase 6 (Homo sapiens) (UniProt P52564); experiment: Inhibition of MAP2K6 Lys2 labeling site in human A-375 cells at 0.5 uM by KiNativ Profiling analysis relative to control; type: cell-based
T4 sequence (whole entry): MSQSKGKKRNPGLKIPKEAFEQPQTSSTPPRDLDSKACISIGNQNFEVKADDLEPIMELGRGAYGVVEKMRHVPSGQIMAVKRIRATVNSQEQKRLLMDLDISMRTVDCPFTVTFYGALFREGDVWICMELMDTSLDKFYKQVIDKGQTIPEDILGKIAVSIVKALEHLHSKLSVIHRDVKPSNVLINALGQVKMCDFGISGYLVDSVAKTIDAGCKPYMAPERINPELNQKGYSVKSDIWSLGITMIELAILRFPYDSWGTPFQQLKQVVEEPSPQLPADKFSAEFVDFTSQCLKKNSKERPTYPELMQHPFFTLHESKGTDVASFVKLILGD

[11] = target: Mitogen-activated protein kinase kinase kinase kinase 4 (Homo sapiens, UniProt O95819); experiment: Inhibition of MAP4K4 (unknown origin) at 1 uM by Ambit Kinomescan binding assay relative to control
Sequence of Mitogen-activated protein kinase kinase kinase kinase 4 (O95819 2-1239 limits assumed): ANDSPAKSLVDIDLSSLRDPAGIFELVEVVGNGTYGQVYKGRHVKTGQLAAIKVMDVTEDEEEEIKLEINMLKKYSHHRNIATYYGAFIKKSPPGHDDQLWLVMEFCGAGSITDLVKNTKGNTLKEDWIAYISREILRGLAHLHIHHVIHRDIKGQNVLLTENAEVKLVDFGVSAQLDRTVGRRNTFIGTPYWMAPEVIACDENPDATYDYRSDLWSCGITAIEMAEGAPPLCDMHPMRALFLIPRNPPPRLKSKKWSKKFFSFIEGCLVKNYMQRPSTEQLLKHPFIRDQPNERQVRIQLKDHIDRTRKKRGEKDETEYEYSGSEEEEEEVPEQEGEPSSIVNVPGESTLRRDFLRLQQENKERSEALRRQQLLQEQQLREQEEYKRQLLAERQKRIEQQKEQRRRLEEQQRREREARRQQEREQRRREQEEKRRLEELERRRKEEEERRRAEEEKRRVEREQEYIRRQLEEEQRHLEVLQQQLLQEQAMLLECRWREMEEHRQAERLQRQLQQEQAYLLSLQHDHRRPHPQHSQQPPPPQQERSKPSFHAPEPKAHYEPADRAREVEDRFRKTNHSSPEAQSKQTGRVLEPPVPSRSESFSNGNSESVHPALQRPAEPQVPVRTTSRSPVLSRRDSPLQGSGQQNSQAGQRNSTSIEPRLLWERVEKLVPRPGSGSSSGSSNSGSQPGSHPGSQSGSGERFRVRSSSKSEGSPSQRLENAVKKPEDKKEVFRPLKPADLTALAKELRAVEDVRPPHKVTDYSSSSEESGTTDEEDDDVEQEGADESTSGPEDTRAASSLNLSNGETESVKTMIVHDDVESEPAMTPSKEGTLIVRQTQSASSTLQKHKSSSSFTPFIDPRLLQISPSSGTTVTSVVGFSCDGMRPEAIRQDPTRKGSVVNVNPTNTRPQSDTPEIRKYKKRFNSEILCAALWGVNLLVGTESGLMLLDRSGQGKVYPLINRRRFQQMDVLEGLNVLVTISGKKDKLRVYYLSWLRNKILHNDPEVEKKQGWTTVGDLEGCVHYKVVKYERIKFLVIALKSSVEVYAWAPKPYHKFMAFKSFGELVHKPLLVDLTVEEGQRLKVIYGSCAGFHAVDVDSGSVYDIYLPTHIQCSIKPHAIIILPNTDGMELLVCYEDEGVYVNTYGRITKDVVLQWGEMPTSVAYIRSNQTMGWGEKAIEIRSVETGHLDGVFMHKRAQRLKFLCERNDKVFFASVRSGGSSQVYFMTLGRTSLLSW

Sequence of Interleukin-1 receptor-associated kinase 3 (Homo sapiens) (Q9Y616 whole entry): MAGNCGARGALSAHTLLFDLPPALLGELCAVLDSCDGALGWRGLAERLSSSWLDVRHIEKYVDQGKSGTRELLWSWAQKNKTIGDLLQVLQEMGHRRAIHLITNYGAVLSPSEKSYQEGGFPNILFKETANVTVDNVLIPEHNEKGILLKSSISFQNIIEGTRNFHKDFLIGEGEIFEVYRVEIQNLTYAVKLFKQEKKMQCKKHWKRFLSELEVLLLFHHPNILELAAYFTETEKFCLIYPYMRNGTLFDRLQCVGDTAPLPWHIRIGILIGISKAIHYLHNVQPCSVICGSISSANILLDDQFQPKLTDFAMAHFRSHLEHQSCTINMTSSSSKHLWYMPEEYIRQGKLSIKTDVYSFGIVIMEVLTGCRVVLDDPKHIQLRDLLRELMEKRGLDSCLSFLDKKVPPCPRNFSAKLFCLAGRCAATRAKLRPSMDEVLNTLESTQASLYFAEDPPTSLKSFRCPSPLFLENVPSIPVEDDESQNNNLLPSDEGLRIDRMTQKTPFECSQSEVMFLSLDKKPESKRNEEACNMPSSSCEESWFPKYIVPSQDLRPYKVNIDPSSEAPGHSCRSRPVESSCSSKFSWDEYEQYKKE

In the case of `CCN1CCN(Cc2ccc(NC(=O)c3ccc(C)c(Oc4ccnc5[nH]ccc45)c3)cc2C(F)(F)F)CC1`, the inhibition [1] is reported as “inactive”, the inhibition [2] is reported as 0.9% and the inhibition [3] is reported as 6.7%. The inhibition [4] was 0%, the inhibition [5] was 3.6% and the inhibition [6] was “inactive”.
For `CNc1cc(Oc2cc(C(=O)Nc3cc(N4CCN(C)CC4)cc(C(F)(F)F)c3)ccc2C)ncn1`, the inhibition [7] was 2.6%, the inhibition [8] was 3.4% and the inhibition [9] was 9.8%.
`CCN1CCN(Cc2ccc(NC(=O)c3ccc(C)c(/C=C/c4cnc5[nH]ccc5c4OC)c3)cc2C(F)(F)F)CC1` was tested, and the inhibition [10] was -7% and the inhibition [11] was 1.8%.

Reference: ChEMBL document CHEMBL5696442, “Discovery of type II inhibitors of TGFβ-activated kinase 1 (TAK1) and mitogen-activated protein kinase kinase kinase kinase 2 (MAP4K2)” (J Med Chem, 2015)
